The structures appear in SMILES notation.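 A five-concentration, 48-hour dose response in 96-well plates underlies each endpoint, interpolated linearly between surrounding concentrations. GI50 marks 50% less growth.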 The source made the active and inactive calls. Rule as the data show it: active = GI50 up to about 1.1 µM and inactive = higher.

From ChEMBL document CHEMBL1201862, “PubChem BioAssay data set” (2004) come the findings set out here.

Some test systems named below: COLO 205; LOX IMVI; SN12C; 786-0; HCC 2998; SW-620; HL-60; UACC-257; EKVX; SK-MEL-5; OVCAR-3; SK-MEL-2; SF-295; SF-268; MDA-MB-231; RPMI-8226; NCI-H522; HOP-92; OVCAR-4; NCI-H460.
What all share (assay): growth of human tumour cells (NCI), 48 h

As to `O=C(NCCCCCCNC(=O)n1cc(F)c(=O)[nH]c1=O)NCCCOCCOCCOCCOCCOCCOCCOCCOCCOCCOCCOCCOCCOCCOCCOCCOCCOCCOCCOCCOCCOCCCNC(=O)C(O)C(O)C(OC1OC(CO)C(O)C(O)C1O)C(O)CO` (stereo unspecified), the GI50 in the assay with COLO 205 was 15.3 µM (inactive); in the assay on LOX IMVI, 18.9 µM (inactive); in the assay with SN12C, 56.5 µM (inactive); in the assay on 786-0 it was 17.8 µM (inactive); in the assay on HCC 2998 it was 1.71 µM (inactive); in the assay with SW-620, 64.7 µM (inactive). Besides, the GI50 was 43.7 µM (inactive) with HL-60; 59.4 µM (inactive) in the assay with UACC-257; > 88.9 µM (inactive) in the assay on EKVX; 20.5 µM (inactive) in the assay on SK-MEL-5; 37.1 µM (inactive) in the assay with OVCAR-3; > 100 µM (inactive) in the assay on SK-MEL-2. The GI50 with SF-295 is 64.9 µM (inactive); in the assay with SF-268 it was 75.5 µM (inactive); with MDA-MB-231, > 71.4 µM (inactive); with RPMI-8226, 17 µM (inactive); in the assay with NCI-H522, 87.9 µM (inactive); in the assay on HOP-92, > 100 µM (inactive). In addition, the values for the GI50 in the assay on OVCAR-4 and in the assay with NCI-H460 were 29.6 µM (inactive) and 3.58 µM (inactive), respectively.
`CCCCCCCCCCCCCCCCP(=O)(O)OCC(N)C(=O)O` (stereo unspecified): the GI50 with COLO 205 was 46.1 µM (inactive); with LOX IMVI, 17.1 µM (inactive); in the assay with SN12C, 41.5 µM (inactive); in the assay on 786-0 it was 42 µM (inactive); in the assay on HCC 2998 it was 40.5 µM (inactive); with SW-620 it was 28.7 µM (inactive). For the same molecule, the GI50 with HL-60 was 18.7 µM (inactive); in the assay with UACC-257, > 100 µM (inactive); in the assay with EKVX, > 100 µM (inactive); with SK-MEL-5 it was 33 µM (inactive); in the assay with OVCAR-3 it was 23.6 µM (inactive); with SK-MEL-2, 26.4 µM (inactive). The GI50 is 20.7 µM (inactive) with SF-295; 27.7 µM (inactive) with SF-268; 32.1 µM (inactive) with MDA-MB-231; 21 µM (inactive) with RPMI-8226; 12.1 µM (inactive) in the assay on NCI-H522; 23.7 µM (inactive) with HOP-92. Further, the GI50 with OVCAR-4 was 37.9 µM (inactive); in the assay with NCI-H460, 22.8 µM (inactive).
For the molecule `CC(C)(Cl)C(Br)CCC(Br)(CCl)C(Cl)CBr` (stereo unspecified), the GI50 with COLO 205, in the assay on LOX IMVI, in the assay on SN12C, with 786-0, in the assay with HCC 2998 and in the assay with SW-620 was > 10 µM (inactive) each time. The GI50 with HL-60, with UACC-257, with EKVX, with SK-MEL-5, in the assay on OVCAR-3 and with SK-MEL-2 was > 10 µM (inactive) throughout. In addition, the GI50 in the assay on SF-295, in the assay with MDA-MB-231, in the assay with RPMI-8226, in the assay on NCI-H522, with HOP-92 and in the assay with OVCAR-4 was > 10 µM (inactive) in each case. Further, in the assay with NCI-H460, the GI50 was > 10 µM (inactive).
As for `Cc1ccc(S(=O)(=O)NC(=O)Nc2c(S(N)(=O)=O)cc(S(N)(=O)=O)c(Cl)c2Cl)cc1`, the GI50 in the assay on LOX IMVI, with SN12C, in the assay on 786-0, in the assay on HCC 2998, in the assay on SW-620 and in the assay on HL-60 was > 100 µM (inactive) in each case. The GI50 with UACC-257, in the assay on EKVX, in the assay on SK-MEL-5, in the assay on OVCAR-3, in the assay with SK-MEL-2 and in the assay with SF-295 was > 100 µM (inactive) in each case. The GI50 with SF-268, in the assay with MDA-MB-231, in the assay with RPMI-8226, in the assay on NCI-H522, in the assay on HOP-92 and with OVCAR-4 was > 100 µM (inactive) in each case. Also, the GI50 in the assay on NCI-H460 was > 100 µM (inactive).
Take `O=C(/C=C/C=C/c1ccccc1)c1ccccc1`: the GI50 is 17.7 µM (inactive) with COLO 205; 15.8 µM (inactive) in the assay with LOX IMVI; 15.9 µM (inactive) in the assay on SN12C; 14.3 µM (inactive) in the assay with 786-0; 17.8 µM (inactive) with HCC 2998; 16.7 µM (inactive) in the assay with SW-620. The GI50 with HL-60 was 3.6 µM (inactive); with UACC-257 it was 16.9 µM (inactive); in the assay with EKVX it was 15.3 µM (inactive); with SK-MEL-5 it was 16.3 µM (inactive); in the assay with OVCAR-3, 19.2 µM (inactive); in the assay with SK-MEL-2, 20.8 µM (inactive). Moreover, the GI50 was 19.3 µM (inactive) in the assay on SF-268; 21.5 µM (inactive) with MDA-MB-231; 16.1 µM (inactive) with RPMI-8226; 4.66 µM (inactive) in the assay on NCI-H522; 18.4 µM (inactive) with HOP-92; 17.7 µM (inactive) with OVCAR-4. For the same molecule, in the assay on NCI-H460, the GI50 is 21.3 µM (inactive).
For `COC(=O)C(=O)C(C(=O)C(=O)Nc1nnc(S)[nH]1)c1nc2ccc([N+](=O)[O-])cc2nc1O` (stereo unspecified), the GI50 in the assay with LOX IMVI, with SN12C, in the assay on 786-0, in the assay on HCC 2998, in the assay with SW-620 and in the assay with HL-60 was > 100 µM (inactive) each time. Besides, the GI50 in the assay with UACC-257, with EKVX, with SK-MEL-5, with OVCAR-3, in the assay on SK-MEL-2 and with SF-295 was > 100 µM (inactive) each time. The GI50 in the assay on SF-268, in the assay on MDA-MB-231, in the assay on RPMI-8226, with NCI-H522, with HOP-92 and in the assay with OVCAR-4 was > 100 µM (inactive) throughout. The GI50 in the assay on NCI-H460 was > 100 µM (inactive).
`COc1cc2cc(C(=O)N3CC(COS(C)(=O)=O)c4ccc(O)cc43)[nH]c2c(OC)c1OC` (stereo unspecified): the GI50 was 0.000432 µM (active) with COLO 205; < 0.0001 µM (active) in the assay with LOX IMVI; < 0.0001 µM (active) in the assay with SN12C; < 0.0001 µM (active) with 786-0; < 0.0001 µM (active) with HCC 2998; < 0.0001 µM (active) in the assay with SW-620. Besides, the GI50 with HL-60 is < 0.0001 µM (active); in the assay with UACC-257, 0.000537 µM (active); with EKVX, 0.00082 µM (active); in the assay with SK-MEL-5 it was < 0.0001 µM (active); in the assay with OVCAR-3, < 0.0001 µM (active); in the assay on SK-MEL-2 it was < 0.0001 µM (active). Besides, the GI50 in the assay on SF-295, in the assay with SF-268, in the assay on MDA-MB-231, with RPMI-8226, in the assay on NCI-H522 and with HOP-92 was < 0.0001 µM (active) throughout. Moreover, in the assay with OVCAR-4, the GI50 is < 0.0001 µM (active).
In the case of `Cc1ccc(-c2c(C#N)c(S)n(NS(=O)(=O)c3ccccc3)c(=O)c2C#N)cc1`, the GI50 is 38.5 µM (inactive) in the assay on COLO 205; 28.5 µM (inactive) with LOX IMVI; 27.9 µM (inactive) in the assay with SN12C; 29.6 µM (inactive) in the assay with 786-0; 47 µM (inactive) in the assay on HCC 2998; 29 µM (inactive) with SW-620. In addition, the GI50 in the assay on HL-60 was 16.7 µM (inactive); with UACC-257, 61 µM (inactive); in the assay with EKVX it was 31 µM (inactive); in the assay with SK-MEL-5 it was 25 µM (inactive); in the assay with OVCAR-3 it was 49 µM (inactive); in the assay with SK-MEL-2 it was 43.8 µM (inactive). Moreover, the GI50 in the assay on SF-295 was 34 µM (inactive); in the assay with MDA-MB-231 it was 26.1 µM (inactive); in the assay on RPMI-8226, 23.3 µM (inactive); with NCI-H522, 19.5 µM (inactive); in the assay with HOP-92, 24.1 µM (inactive); in the assay with OVCAR-4, 34.4 µM (inactive). Moreover, the GI50 in the assay with NCI-H460 was 15.6 µM (inactive).
In the case of `COC(=O)C(=O)C(C(=O)OC)C(=O)C(=O)Nc1c(Cl)cc([N+](=O)[O-])cc1Cl` (stereo unspecified), the GI50 in the assay with LOX IMVI was 83 µM (inactive); in the assay on SN12C it was > 100 µM (inactive); in the assay on 786-0, 40.7 µM (inactive); with HCC 2998, > 100 µM (inactive); with SW-620 it was > 100 µM (inactive); with HL-60, > 100 µM (inactive). The GI50 with UACC-257 is > 100 µM (inactive); in the assay with EKVX, 48.6 µM (inactive); with SK-MEL-5, > 100 µM (inactive); in the assay on OVCAR-3, > 100 µM (inactive); in the assay with SK-MEL-2, > 100 µM (inactive); in the assay on SF-295, 64 µM (inactive). In addition, the GI50 is 40.1 µM (inactive) in the assay with SF-268; > 100 µM (inactive) with MDA-MB-231; > 100 µM (inactive) in the assay on RPMI-8226; 27 µM (inactive) in the assay on NCI-H522; > 100 µM (inactive) in the assay on HOP-92; 80.9 µM (inactive) in the assay with OVCAR-4. Moreover, in the assay on NCI-H460, the GI50 is > 100 µM (inactive).
Take `CC1=CC(=O)CC(C)(C)C1/C=C/C(C)=C/C=C/C(C)=C/C=C/C=C(C)/C=C/C=C(C)/C=C/C1=C(C)CC(O)CC1(C)C` (stereo unspecified): the GI50 was 31.3 µM (inactive) in the assay on LOX IMVI; 22 µM (inactive) with 786-0; 23.8 µM (inactive) in the assay on HCC 2998; 15.7 µM (inactive) with SW-620; 18.6 µM (inactive) with HL-60; 37.7 µM (inactive) in the assay on UACC-257. In addition, the GI50 with EKVX is 57.3 µM (inactive); in the assay with SK-MEL-5, 33 µM (inactive); in the assay on OVCAR-3, 25.2 µM (inactive); with SK-MEL-2 it was > 100 µM (inactive); in the assay on SF-295, 60.8 µM (inactive); in the assay with SF-268 it was 50.9 µM (inactive). Moreover, the GI50 in the assay on MDA-MB-231 was 64.3 µM (inactive); with RPMI-8226 it was 9.31 µM (inactive); in the assay on NCI-H522 it was 23.2 µM (inactive); in the assay with HOP-92, 27.3 µM (inactive); in the assay with OVCAR-4, 37.9 µM (inactive); with NCI-H460, 38.3 µM (inactive).
